One molecule from patent US20040038950A1, “Pharmaceutical composition for treating IL-1 related diseases or disorders” (priority 2002, published 2004) can be followed below.

One assay deals with human chondrocyte. Description: Cell proliferation, [3H]thymidine assay in chondrocyte alginate bead culture. The class given is cell-based. Particulars: 10-100 μM DHEA. The method, then:
Chondrocytes were isolated from the knee joint of patient undergoing a knee replacement due to osteoarthritis. Cartilage was digested with 0.2% protease Type XIV (Sigma) for 1 hour, followed by 3-hour incubation with 0.2% collagenase Type IA (Sigma) at 37° C. Following the incubation, the undigested cartilage fragments were removed using a 70 μm Nylon sieve. Chondrocytes were washed with DPBS and maintained in monolayer culture for 7 days in Dulbecco's modified Eagle's medium (DMEM; Life Technologies Inc.) which contained 10% fetal bovine serum (FBS; Life Technologies), 100 units/ml penicillin-streptomycin (Life Technologies) and 25 μg/ml L-ascorbic acid (Sigma). All experiments were performed with primary or first passage cells. The preparation of chondrocytes in alginate beads was carried out with 4×10^6 cells per 1 ml of alginate. […]
For cell proliferation, [^3H]thymidine assay was performed on a 96-well plate (Nunc) with one alginate bead per well. […] After collecting the cells using a cell harvester (Wallac), [^3H]thymidine uptake was quantitated by measuring β emission on a β-counter (Wallac). […] The ^35SO4-labeled proteoglycan content was measured by a liquid scintillation counter (Wallac). The total cellular DNA was determined by Indole assay.

Assay [1] deals with patients diagnosed to have degenerative arthritis. Description: Topical application of DHEA to arthritic patient. The note with it: for resting pain score: before 14.34; for joint effusion score: before 2.12; for medial joint line tenderness score: before 2.18; for motion pain score: before 8.11; for pain at ascending/descending stairs score: before 10.87. The class given is in vivo, human. As for the experimental part: Ten patients diagnosed to have degenerative arthritis were tested to investigate the therapeutic effect of DHEA in topical application. Testees had the symptoms including dolor of knee joint (resting or motion pain), swelling, deformation, tenderness, crepitation or stiffness of joint. Patients who had received intraarticular injection, steroid treatment or surgery within 1 month before this test were excluded, as well as those who had severe cardiac or liver diseases, kidney failure, gastrointestinal diseases, or poor systemic condition such as anomalotrophy. Besides, women who were pregnant or breast-feeding babies were excluded in this study.
The volunteers were randomly grouped into Group I and Group II, and subject to the experiment for topical application of DHEA. A portion of knee joint showing dolor symptom was coated with either 5% DHEA or PBS (phosphate buffered saline) twice a day for 1 month. Any alteration of symptom was checked prior to the application, 1 week and then again 1 month during the application regimen.
The severity of pain was scored ranging from 0 (most severe pain) to 20 points (no pain) at an interval of 5 points.
In addition, both joint effusion and medial joint-line tenderness were recorded during a physical test administered by a doctor based on the point rating scale: highness, 4; medium, 3; slightness, 2; and not found, 0.
The opinions on symptom were recorded as 5 categories relying on the subjective opinions of patients and the opinions of doctors regarding both dolor of patients and the results of physical tests: superiority, goodness, mediocrity, poorness and exceeding poorness.
In addition, the assessment regarding the level of improvement on symptoms was recorded in accordance with the following criteria: 3-step improvement, “exceeding improvement”; 2-step improvement, “improvement”; 1-step improvement, “slight improvement”; “no change”; and “aggravation”.

[2] abbreviates: Group I (5 patients), 1 month after application.
Where [3] appears, read: Group I, topical, 1 month after application.
Setting [4] is: Group I, topical, 1 week after application.
Where [5] appears, read: Group I, topical, 1 week and 1 month vs before application.

On to `C[C@]12CC[C@H](O)CC1=CC[C@@H]1[C@@H]2CC[C@]2(C)C(=O)CC[C@@H]12` [DHEA, dehyroepiandrosterone], for which the “effect on cell proliferation” value in the assay on human chondrocyte (after day 5) is on record as “insignificant”. Also, in the assay on human chondrocyte (as early as day 3 of culture), the cell proliferation entry is on record as “slightly reduced”. Besides, in assay [1] (setting [2]), the “opinion of doctor: no change” value is 4 persons, the “opinion of doctor: slight improvement” value turned out to be 1 person, the “opinion of patient: aggravation” value was found to be 1 person and the “opinion of patient: no change” value turned out to be 3 persons. In addition, the “opinion of patient: slight improvement” value in assay [1] (setting [2]) is reported as 1 person. Further, the resting pain score in assay [1] (Group I, topical 5% DHEA twice a day, 1 week after application) is listed as 15.29 points. In addition, in assay [1] (setting [3]), the joint effusion score is 2.27 points, the “medial joint line tenderness score” value worked out at 2.54 points, the motion pain score amounted to 8.51 points and the “pain at ascending/descending stairs score” value was 10.49 points. Further, the resting pain score in assay [1] (setting [3]) is reported as 15.02 points. Besides, in assay [1] (setting [4]), the joint effusion score amounted to 1.98 points, the “medial joint line tenderness score” value was 2.11 points, the motion pain score is recorded as 8.34 points and the “pain at ascending/descending stairs score” value is recorded as 10.11 points. Moreover, in assay [1] (setting [5]), the “change of joint effusion” value is “not a significant change”, the “change of medial joint line tenderness” value was “not a significant change”, the “change of motion pain” value is reported as “not a significant change” and the “change of pain at ascending/descending stairs” value is given as “not a significant change”. In addition, the “change of resting pain” value in assay [1] (setting [5]) is “not a significant change”.
